Data from publication PMC2948022 (Talanta, 2010).

Key:
[1] = Urine concentrations of; type: in vivo, human; details: CRPS patient, (R,S)-Ket 40 mg/h continuous infusion, morning of Day 3
[2] = Plasma concentrations of; details: CRPS patient, (R,S)-Ket 40 mg/h continuous infusion, morning of Day 3; estimated using the standard curve for (2S,6S); (2R,6R)-hydroxynorketamine
[3] = Relative; type: in vivo, human; details: CRPS patient urine, Day 3, AGP-CSP
[4] = cited from earlier work
[5] = cited from earlier work; remark: listed apart in the source
[6] = estimated using the standard curve for (2S,6S)-hydroxyketamine
[7] = estimated using the standard curve for (2S,6S), (2R,6R)-hydroxynorketamine

Row | Compound | Plasma [2] [ng/mL] | Urine [1, 7] [ng/mL] | other results
1 | CN[C@]1(c2ccccc2Cl)CC[C@H](O)CC1=O (single isomer, unassigned; peak 5c) [Peak 5c] | – | – | Urine [1, 6]: 4 ng/mL
2 | NC1(c2ccccc2Cl)CCCC(O)C1=O (single isomer, unassigned; peak 4b) [Peak 4b] | 881 | 572 | –
3 | CN[C@@]1(c2ccccc2Cl)CC[C@H](O)CC1=O (single isomer, unassigned; peak 5d) [Peak 5d] | – | – | Urine [1, 6]: 5 ng/mL
4 | N[C@]1(c2ccccc2Cl)CC[C@@H](O)CC1=O (single isomer, unassigned) [Peak 4f] | 141 | – | Urine (ng/ml) [1, 7]: 4,099 ng/ml
5 | N[C@]1(c2ccccc2Cl)CC[C@H](O)CC1=O (single isomer, unassigned; peak 4c) [Peak 4c] | 245 | 940 | –
6 | NC1(c2ccccc2Cl)CC(O)CCC1=O (single isomer, unassigned) [Peak 4e] | 160 | 515 | –
7 | N[C@]1(c2ccccc2Cl)C[C@@H](O)CCC1=O (single isomer, unassigned; peak 4d) [Peak 4d] | 145 | 475 | –
8 | CNC1(c2ccccc2Cl)CCCCC1=O (single isomer, unassigned; peak 1) [Peak 1, (R.S)-Ketamine] | – | – | relative enantiomeric urine concentration (R)-/(S)- [3]: 1.0
9 | N[C@@]1(c2ccccc2Cl)CCC[C@@H](O)C1=O (single isomer, unassigned; peak 4a) [Peak 4a] | – | – | anesthetic activity [4]: no anesthetic activity; concentration in the CNS [5]: reaches significant concentration in the CNS
